The values below come from ChEMBL document CHEMBL5042543, “Bridged Piperidine Analogues of a High Affinity Naphthalene-Based P2Y14R Antagonist” (J Med Chem, 2022).

Converted amounts (≈) assume the structure as drawn. The source made the active and inactive calls. The rule behind the calls is not given here.

In data set [1] the test system is Mus musculus. Nature of the data set: Reversal of CCI-induced mechano-allodynia in Hsd:ICR (CD-1) mouse model of neuropathic pain at 10 micromol/kg, ip measured after 3 hrs. It counts as functional, organism-based. To be noted: dose 10.0 µmol/kg.
The subject of data set [2] is Mus musculus. Briefly: Antiinflammatory activity in C57BL/6J mouse model of ovalbumin/Aspergillus-induced allergic asthma assessed as reduction in allergic inflammation at 10 mg/kg, ip administered 30 mins prior to allergen challenge and measured after 16 days. The format is functional, organism-based. The note with it: time 16.0 day.
Data set [3] relates to Mus musculus. Briefly: Antiinflammatory activity in C57BL/6J mouse model of ovalbumin/Aspergillus-induced allergic asthma assessed as reduction in eosinophil counts in BALF at 10 mg/kg, ip administered 30 mins prior to allergen challenge and measured after 16 days. The format is functional, organism-based. To be noted: time 16.0 day.
Data set [4] deals with Mus musculus. Briefly: Reversal of CCI-induced mechano-allodynia in Hsd:ICR (CD-1) mouse model of neuropathic pain at 10 micromol/kg, ip measured after 5 hrs. The format is functional, organism-based. The note with it: dose 10.0 µmol/kg.
The subject of data set [5] is Mus musculus. Briefly: Antiinflammatory activity in C57BL/6J mouse model of ovalbumin/Aspergillus-induced allergic asthma assessed as reduction in neutrophil counts in BALF at 10 mg/kg, ip administered 30 mins prior to allergen challenge and measured after 16 days. The note with it: time 16.0 day. It counts as functional, organism-based.
In data set [6] the test system is Mus musculus. Nature of the data set: Antiinflammatory activity in C57BL/6J mouse model of ovalbumin/Aspergillus-induced allergic asthma assessed as reduction in macrophage counts in BALF at 10 mg/kg, ip administered 30 mins prior to allergen challenge and measured after 16 days. The format is functional, organism-based. To be noted: time 16.0 day.
Data set [7] has as its target T1, Muscarinic acetylcholine receptor M1 (Homo sapiens, UniProt P11229).
T1 sequence (P11229 whole entry): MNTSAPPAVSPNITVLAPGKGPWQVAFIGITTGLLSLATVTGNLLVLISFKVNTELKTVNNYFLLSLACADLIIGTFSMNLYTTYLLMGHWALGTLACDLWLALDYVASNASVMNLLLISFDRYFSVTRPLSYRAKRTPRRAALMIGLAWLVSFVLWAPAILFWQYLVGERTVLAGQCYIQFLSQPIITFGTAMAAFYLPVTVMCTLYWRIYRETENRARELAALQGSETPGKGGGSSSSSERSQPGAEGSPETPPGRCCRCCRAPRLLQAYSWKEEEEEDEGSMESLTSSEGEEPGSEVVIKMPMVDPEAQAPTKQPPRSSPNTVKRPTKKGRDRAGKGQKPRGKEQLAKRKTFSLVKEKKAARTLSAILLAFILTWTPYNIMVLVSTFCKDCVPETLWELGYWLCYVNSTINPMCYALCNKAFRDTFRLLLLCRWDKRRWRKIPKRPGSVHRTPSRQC
Nature of the data set: Inhibition of muscarinic M1 receptor (unknown origin) assessed as binding constant.

A further data set has as its target T2, liver carboxylesterase (Sus scrofa, UniProt Q29550).
T2 sequence (Q29550 whole entry): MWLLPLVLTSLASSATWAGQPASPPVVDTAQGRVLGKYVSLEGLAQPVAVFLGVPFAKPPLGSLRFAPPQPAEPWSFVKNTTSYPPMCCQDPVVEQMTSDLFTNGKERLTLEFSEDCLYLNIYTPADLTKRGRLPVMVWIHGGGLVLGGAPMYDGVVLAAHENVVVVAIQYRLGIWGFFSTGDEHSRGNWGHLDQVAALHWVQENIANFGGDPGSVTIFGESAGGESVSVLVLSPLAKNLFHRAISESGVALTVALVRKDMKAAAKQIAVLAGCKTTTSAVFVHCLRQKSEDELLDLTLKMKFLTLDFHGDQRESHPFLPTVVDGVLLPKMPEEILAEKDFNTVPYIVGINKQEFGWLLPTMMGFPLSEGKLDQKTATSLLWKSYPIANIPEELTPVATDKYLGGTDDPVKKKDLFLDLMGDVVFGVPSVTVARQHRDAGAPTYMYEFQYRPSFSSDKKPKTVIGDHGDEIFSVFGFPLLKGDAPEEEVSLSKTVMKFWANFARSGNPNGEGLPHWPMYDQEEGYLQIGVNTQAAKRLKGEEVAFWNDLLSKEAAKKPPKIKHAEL
Nature of the data set: Stability of the compound in aqueous medium at pH 7.4 assessed as half life in presence of porcine liver esterase. The format is physicochemical. The note with it: pig.

A short description of data set [8]: Plasma protein binding in human assessed as bound fraction. The format is ADME, cell-free.
The target of data set [9] is Sodium-dependent serotonin transporter (Homo sapiens, UniProt P31645). Briefly: Inhibition of SERT receptor (unknown origin) assessed as binding constant.
Data set [10] in a line: Prodrug conversion in aqueous medium at pH 7.4 assessed as conversion of 4-(4-((1S,4S,5S)-2-(Ethoxycarbonyl)-2-azabicyclo[2.2.1]heptan-5-yl)phenyl)-7-(4-(trifluoro-methyl)phenyl)-2-naphthoic acid at 72 hrs by HPLC analysis. It counts as ADME. To be noted: buffer, pH 7.4, 72 h.
Data set [11] deals with Sigma intracellular receptor 2 (Homo sapiens, UniProt Q5BJF2). Briefly: Inhibition of sigma 2 receptor (unknown origin) assessed as binding constant.
Data set [12] is described as follows: Plasma protein binding in mouse assessed as compound remaining at 5 hrs. The format is ADME, cell-free.
Data set [13] is described as follows: Plasma protein binding in rat assessed as compound remaining at 5 hrs. It counts as ADME, cell-free.
Data set [14] can be described thus: Stability in human liver microsomes assessed as half life. It counts as ADME, Microsome.
The nature of data set [15]: Plasma protein binding in mouse assessed as bound fraction. The format is ADME, cell-free.
The nature of data set [16]: Stability in mouse plasma assessed as compound remaining after 120 mins. To be noted: 2 h. The format is ADME, cell-free.
Data set [17] in a line: Stability in mouse liver microsomes assessed as half life. It counts as ADME, Microsome.
The subject of a further data set is HepG2. Nature of the data set: Cytotoxicity against human HepG2 cells. It counts as toxicity, cell-based.
Data set [18] can be described thus: Plasma protein binding in rat assessed as bound fraction. The format is ADME, cell-free.
A short description of data set [19]: Stability of the compound in simulated intestinal fluid assessed as parent compound remaining at 120 mins. It counts as ADME. The note with it: simulated gi fluid, 2 h.
Data set [20] has as its system Mus musculus. Briefly: Antiinflammatory activity in C57BL/6J mouse model of ovalbumin/Aspergillus-induced allergic asthma assessed as reduction in recruitment of immune cells into lungs at 10 mg/kg, ip administered 30 mins prior to allergen challenge and measured after 16 days. It counts as functional, organism-based. The note with it: time 16.0 day.
The nature of data set [21]: Half life in Wistar rat at 0.5 mg/kg, iv. The format is ADME, organism-based. The note with it: in vivo.
Data set [22] is described as follows: Stability of the compound in simulated gastric fluid assessed as parent compound remaining at 120 mins by NMR analysis. To be noted: simulated gi fluid, 2 h. The format is ADME.
Data set [23] can be described thus: Stability in rat liver microsomes assessed as half life. The format is ADME, Microsome.
The nature of data set [24]: Half life in Wistar rat at 1 mg/kg, ip. The format is ADME, organism-based. To be noted: in vivo.
Data set [25] in a line: Stability in rat plasma assessed as compound remaining after 120 mins. The format is ADME, cell-free. The note with it: 2 h.
Data set [26] can be described thus: Distribution coefficient, logD of compound at pH 7.4 by HPLC analysis. The note with it: octanol/water. The format is physicochemical.
Data set [27] in a line: Toxicity in Hsd:ICR (CD-1) mouse at 10 micromol/kg, ip. The note with it: in vivo, dose 10 µmol/kg.
Data set [28] in a line: Aqueous solubility of the compound at pH 4. The note with it: buffer.
The test system of data set [29] is Mus musculus. Briefly: Antiinflammatory activity in C57BL/6J mouse model of ovalbumin/Aspergillus-induced allergic asthma assessed as reduction in recruitment of neutrophils into airway at 10 mg/kg, ip administered 30 mins prior to allergen challenge and measured after 16 days. The format is functional, organism-based. The note with it: time 16.0 day.
The test system of data set [30] is Mus musculus. Nature of the data set: Antiinflammatory activity in C57BL/6J mouse model of ovalbumin/Aspergillus-induced allergic asthma assessed as reduction in recruitment of lymphocytes into airway at 10 mg/kg, ip administered 30 mins prior to allergen challenge and measured after 16 days. It counts as functional, organism-based. The note with it: time 16.0 day.

In data set [31] the test system is Mus musculus. Briefly: Antiinflammatory activity in C57BL/6J mouse model of ovalbumin/Aspergillus-induced allergic asthma assessed as reduction in recruitment of eosinophils into airway at 10 mg/kg, ip administered 30 mins prior to allergen challenge and measured after 16 days. It counts as functional, organism-based. To be noted: time 16.0 day.

Sigma intracellular receptor 2, sequence (Q5BJF2 whole entry): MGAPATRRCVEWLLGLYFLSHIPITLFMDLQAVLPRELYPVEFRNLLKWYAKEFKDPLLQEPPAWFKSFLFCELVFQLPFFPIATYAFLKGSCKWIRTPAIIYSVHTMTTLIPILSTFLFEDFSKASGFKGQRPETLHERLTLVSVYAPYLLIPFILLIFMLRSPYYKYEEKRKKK
Sodium-dependent serotonin transporter, sequence (P31645 whole entry): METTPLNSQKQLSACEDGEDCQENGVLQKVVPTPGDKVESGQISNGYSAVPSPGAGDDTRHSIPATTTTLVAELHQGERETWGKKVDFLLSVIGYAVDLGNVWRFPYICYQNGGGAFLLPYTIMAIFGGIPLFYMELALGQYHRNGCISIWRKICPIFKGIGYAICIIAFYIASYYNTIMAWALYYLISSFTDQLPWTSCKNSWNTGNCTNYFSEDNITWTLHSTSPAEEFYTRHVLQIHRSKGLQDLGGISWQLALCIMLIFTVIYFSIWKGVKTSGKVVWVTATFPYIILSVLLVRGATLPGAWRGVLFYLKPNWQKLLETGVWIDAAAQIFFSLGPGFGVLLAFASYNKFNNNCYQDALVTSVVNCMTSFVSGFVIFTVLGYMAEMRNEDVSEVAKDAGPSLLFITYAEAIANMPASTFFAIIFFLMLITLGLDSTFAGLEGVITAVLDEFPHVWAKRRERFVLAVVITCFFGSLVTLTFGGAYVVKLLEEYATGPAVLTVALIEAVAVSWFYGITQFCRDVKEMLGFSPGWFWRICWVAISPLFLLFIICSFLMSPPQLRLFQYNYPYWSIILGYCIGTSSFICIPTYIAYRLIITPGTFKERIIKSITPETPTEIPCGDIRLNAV

`O=C(O)c1cc(-c2ccc([C@H]3C[C@H]4C[C@@H]3CN4)cc2)c2ccc(-c3ccc(C(F)(F)F)cc3)cc2c1` [listing 1 of 2 here]: the outcome in the data set with Mus musculus [1], in the data set with Mus musculus [2], with Mus musculus [3] and in the data set on Mus musculus [5] was Active. In addition, the result in the data set on Mus musculus [4] and in the data set on Mus musculus [6] was inactive.

Turning to `CN(C)C(=O)COC(=O)c1cc(-c2ccc([C@H]3C[C@H]4C[C@@H]3CN4)cc2)c2ccc(-c3ccc(C(F)(F)F)cc3)cc2c1`, the inhibition constant Ki in data set [7] was above 1 µM; in data set [9], above 1 µM; in [11], 0.39 µM. Also, at liver carboxylesterase, the half-life is above 72 h. Moreover, in data set [8], the PPB turned out to be 99.7%. For the same compound, in [10], the Drug metabolism is recorded as 59%. Also, the Fu in [12] amounted to 0%; in data set [13] it was 0.72%.

Take `O=C(O)c1cc(-c2ccc([C@@H]3C[C@@H]4C[C@H]3NC4=O)cc2)c2ccc(-c3ccc(C(F)(F)F)cc3)cc2c1`: the t1/2 in data set [14] is 12.5 h; in data set [17], above 16.67 h; in [23], 1.49 h. Further, the PPB in data set [15] is reported as 99.74%; in data set [8], 98.89%; in data set [18] it was 96.18%. Also, the Stability in [16] is given as 74.1%; in data set [19] it was 100%; in data set [22], 59.3%; in data set [25] it was 74.7%. In the data set on HepG2, this compound yielded an IC50 of 9.34 µM. In the data set on Mus musculus [20], the result was Active. Moreover, the figures for the half-life in [21] and in [24] were 2.11 h and 4.59 h, respectively. For the same compound, the Ki in data set [11] came to 2.1 µM.

Consider `O=C(O)c1cc(-c2ccc([C@H]3C[C@H]4C[C@@H]3CN4)cc2)c2ccc(-c3ccc(C(F)(F)F)cc3)cc2c1` [listing 2 of 2 here], for which the values for the t1/2 in [14], in data set [17] and in [23] were 4.67 h, 4.05 h and 1.52 h, respectively. The PPB is 99.76% in data set [15], 87.98% in data set [8] and 99.79% in data set [18]. This compound had a logD in [26] of 1.9. Besides, the Stability is 100% in data set [16], 99.1% in data set [19], 100% in data set [22] and 82.8% in data set [25]. Besides, half-maximal inhibition in the data set on HepG2 (IC50) required 11 µM. Besides, in [27], the Activity entry is “Non-Toxic”. In data set [28], this compound displayed a solubility of 1.22 µg/mL (≈ 2.5 µM). Besides, the half-life was 7.24 h in data set [21] and 8.94 h in data set [24]. Moreover, the Ki in data set [11] turned out to be 0.71 µM.

As to `CCOC(=O)N1C[C@H]2C[C@@H]1C[C@@H]2c1ccc(-c2cc(C(=O)OCC(=O)N(C)C)cc3cc(-c4ccc(C(F)(F)F)cc4)ccc23)cc1`, the pH-dependent lipophilicity (logD) in [26] (read-out: logD) is 6. Also, the half-life at liver carboxylesterase is above 72 h. Also, the outcome in the data set with Mus musculus [29], with Mus musculus [30] and with Mus musculus [31] was Active. Besides, the Drug metabolism in [10] is listed as 3%.
